Patent US11155586B2, “Cystine knot scaffold platform” (Genentech, Inc., priority 2015, dated 2021)
Positions of bridges follow the written chain, without caps; N, C: chain ends. Residues, ends and D or L forms follow the SMILES beside them.

Columns and labels:
hVEGF-A (8-109) = molecular target: T1, hVEGF-A (8-109) (Homo sapiens, UniProt P15692); assay: Phage competition ELISA; format: binding
T1 sequence (P15692 214-315): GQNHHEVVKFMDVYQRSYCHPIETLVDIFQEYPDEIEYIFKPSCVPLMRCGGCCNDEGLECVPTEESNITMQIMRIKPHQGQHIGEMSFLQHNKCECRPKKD

[1] = molecular target: hVEGF-A mutants (Y21A, K48A, Q89A, F17A/M81A); assay: SPR binding assay, hVEGF-A mutants; set-up: species or system human; kd: unit not given here
Method: (§1) Depending on the format of the assay either a streptavidin sensor (SA) or a dextran-coated (CM5) sensor was utilized as described below.
(§2) For use with the SA sensor, VEGF-A was first biotinylated (no more than 2 biotin/VEGF-A) by incubating the protein with EZ-link NHS-PEG4-Biotin (Pierce) in a 1:1.5 molar ratio respectively, in PBS for 2 hours on ice. Reaction was then quenched by addition of 10 molar excess of Glycine pH 8.0 and the sample was buffer exchanged into PBS using an Amicon 0.5 mL 3000 MWCO ultra-centrifugal filters (EMD Millipore). The biotinylation state of the protein was verified by LC-MS analysis. Biotinylated VEGF-A was then captured on the surface until a resonance unit (RU) signal of about ˜400. For immobilization of VEGF-A on CM5 sensor, the surface was first activated with a mixture of N-ethyl-N′-(3-dimethylaminopropyl)carbodiimide hydrochloride and N-hydroxysuccinimide (EDC/NHS) according to the supplier instructions. VEGF-A was then diluted into coupling buffer (0.1 M Acetate Buffer, pH 5.0) and injected until the signal reached about ˜400 RU followed by a wash with 1 M ethanolamine pH 8.0 to quench remaining activated sites.
(§3) Following the capture step, a series of the peptide concentrations were prepared in HBS-EP buffer with matching DMSO concentrations to 0.1% and injected at a flow rate of […]. The resulting sensorgrams were then analyzed using a 1:1 binding model to obtain kinetic data and affinities using Scrubber 2.0 (BioLogic Software).
The binding interface of VEGF_CKP9.54.90 on VEGF-A overlaps with that of the natural receptors and G6.31 antibody (FIGS. 7 and 8). […] However, K48A mutation enhanced the binding of VEGF_CKP9.54.90 by ˜2-3 fold, a behavior that is similar to that observed with the G6.31 antibody (Fuh et al. (2006) J. Biol. Chem. 281, 6625-6631).

hVEGF(8-109) = molecular target: T2, hVEGF(8-109) (Homo sapiens, UniProt P15692); assay: Spot phage ELISA; format: binding; details: Table 24; for ELISA: VEGF_CKP9 Loop1/Loop5 affinity-matured variants
T2 construct: hVEGF(8-109) or BSA were coated on 384-well MAXISORP™ immunoplates
T2 sequence (P15692 214-315): T1 sequence (P15692 214-315)
How it was run: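 Clones counted positive when hVEGF(8-109) signal exceeded BSA background by over 3-fold, per spot ELISA using anti-M13-HRP/TMB detection. Phage came from overnight 37° C. cultures of individual clones picked after four binding rounds, supernatant diluted 1:3.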

rat VEGF-A = molecular target: T3, rat VEGF-A (Rattus norvegicus, UniProt P16612); assay: SPR binding assay; details: for ka / kd: rat, Table 30
T3 sequence (P16612 27-139 limits assumed): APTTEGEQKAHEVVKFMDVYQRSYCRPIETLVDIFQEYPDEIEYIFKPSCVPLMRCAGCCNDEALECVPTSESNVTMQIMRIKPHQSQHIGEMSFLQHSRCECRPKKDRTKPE
Method: as §1, §2, §3

VEGF mouse 164 = molecular target: T4, VEGF mouse 164 (Mus musculus, UniProt Q00731); assay: SPR binding assay; details: for ka / kd: mouse 164, Table 30
T4 sequence (Q00731 27-190 isoform Q00731-2): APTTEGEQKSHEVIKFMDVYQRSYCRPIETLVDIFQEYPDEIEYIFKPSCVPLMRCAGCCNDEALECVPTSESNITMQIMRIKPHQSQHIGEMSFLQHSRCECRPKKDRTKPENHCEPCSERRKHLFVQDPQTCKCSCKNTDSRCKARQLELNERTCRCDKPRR
Method: as §1, §2, §3

VEGF human 165 = molecular target: T5, VEGF human 165 (Homo sapiens, UniProt P15692); assay: SPR binding assay; details: for ka / kd: human 165, Table 30
T5 sequence (P15692 27-191 isoform P15692-4): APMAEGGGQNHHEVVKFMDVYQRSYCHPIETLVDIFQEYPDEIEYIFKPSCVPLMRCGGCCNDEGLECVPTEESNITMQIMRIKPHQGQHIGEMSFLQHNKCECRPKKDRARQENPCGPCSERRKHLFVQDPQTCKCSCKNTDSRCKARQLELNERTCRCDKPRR
Method: as §1, §2, §3

rabbit VEGF-A = molecular target: T6, rabbit VEGF-A (Oryctolagus cuniculus, UniProt G1T1L9); assay: SPR binding assay; details: for ka / kd: rabbit, Table 30
T6 sequence (G1T1L9 1-398): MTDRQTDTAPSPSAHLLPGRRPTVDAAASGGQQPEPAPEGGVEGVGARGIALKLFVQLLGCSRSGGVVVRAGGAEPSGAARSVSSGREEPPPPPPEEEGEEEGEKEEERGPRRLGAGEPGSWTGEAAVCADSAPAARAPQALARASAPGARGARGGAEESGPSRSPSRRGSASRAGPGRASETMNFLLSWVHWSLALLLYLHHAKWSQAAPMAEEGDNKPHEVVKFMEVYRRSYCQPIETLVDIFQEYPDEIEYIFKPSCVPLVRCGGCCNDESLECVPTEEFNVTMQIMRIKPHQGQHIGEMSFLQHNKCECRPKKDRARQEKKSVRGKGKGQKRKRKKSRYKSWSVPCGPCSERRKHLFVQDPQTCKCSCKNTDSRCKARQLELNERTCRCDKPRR
Method: as §1, §2, §3

| Structure (SMILES) | IC50 (hVEGF-A (8-109)) [nM] | Kd ([1]; hVEGF-A mutant K48A) [nM] | ka ([1]; hVEGF-A mutant K48A) | kd ([1]; hVEGF-A mutant K48A) | Kd ([1]; hVEGF-A mutant Q89A) [nM] | ka ([1]; hVEGF-A mutant Q89A) | kd ([1]; hVEGF-A mutant Q89A) | Kd ([1]; hVEGF-A mutant Y21A) [nM] | ka ([1]; hVEGF-A mutant Y21A) | kd ([1]; hVEGF-A mutant Y21A) | S/N (signal to noise ratio as compared to BSA control) (hVEGF(8-109)) | ELISA (hVEGF(8-109)) | Kd (rat VEGF-A) [nM] | ka (rat VEGF-A) | kd (rat VEGF-A) | Kd (VEGF mouse 164) [nM] | ka (VEGF mouse 164) | kd (VEGF mouse 164) | Kd (VEGF human 165) [nM] | ka (VEGF human 165) | also measured |
| --- | --- | --- | --- | --- | --- | --- | --- | --- | --- | --- | --- | --- | --- | --- | --- | --- | --- | --- | --- | --- | --- |
| CC[C@H](C)[C@@H]1NC(=O)[C@H](CC(N)=O)NC(=O)[C@@H](NC(=O)CN)CSSC[C@@H](C(=O)N[C@H](C(=O)N[C@H]2CSSC[C@@H](C(=O)NCC(=O)O)NC(=O)[C@H](CO)NC(=O)[C@H](CCC(N)=O)NC(=O)[C@H](Cc3ccc(O)cc3)NC(=O)[C@H](Cc3ccc(O)cc3)NC(=O)[C@H](CCC(N)=O)NC2=O)C(C)C)NC(=O)CNC(=O)[C@H](C)NC(=O)[C@H](CC(C)C)NC(=O)[C@@H]2CSSC[C@H](NC(=O)CNC(=O)[C@H](Cc3c[nH]c4ccccc34)NC(=O)[C@H](Cc3ccccc3)NC(=O)[C@@H]3CCCN3C(=O)[C@H](CC(C)C)NC(=O)[C@H](CCSC)NC1=O)C(=O)N[C@@H](CCCCN)C(=O)N[C@@H](CCC(N)=O)C(=O)N[C@@H](CC(=O)O)C(=O)N[C@@H](CO)C(=O)N[C@@H](CC(=O)O)C(=O)N2 [VEGF_CKP9.54] (H-GCNIMLPFWGCKQDSDCLAGCVCQYYQSCG-OH; disulfide 2-21, 11-17, 23-29 (inferred); N-terminus and C-terminus assumed) | 450 | 22 | 2.64 × 10^6 | 0.0587 | 1880 | 3.37 × 10^5 | 0.7932 | 317 | 6.63 × 10^5 | 0.2101 | 28.4 | 2.1 | 176 | 1.93 × 10^6 | 2.96 × 10^−1 | 250 | 8.26 × 10^5 | 2.07 × 10^−1 | 190 | 8.23 × 10^5 | kd (VEGF human 165): 1.49 × 10^−1; Kd (rabbit VEGF-A): 133 nM; ka (rabbit VEGF-A): 2.10 × 10^6; kd (rabbit VEGF-A): 2.74 × 10^−1 |
| CSCC[C@@H]1NC(=O)[C@H](C(C)C)NC(=O)[C@H](CC(=O)O)NC(=O)[C@@H](NC(=O)CN)CSSC[C@@H](C(=O)N[C@H](C(=O)N[C@H]2CSSC[C@@H](C(=O)NCC(=O)O)NC(=O)[C@H](CO)NC(=O)[C@H](CC(N)=O)NC(=O)[C@H](Cc3ccc(O)cc3)NC(=O)[C@H](Cc3c[nH]c4ccccc34)NC(=O)[C@H](Cc3c[nH]cn3)NC2=O)C(C)C)NC(=O)CNC(=O)[C@H](C)NC(=O)[C@H](CC(C)C)NC(=O)[C@@H]2CSSC[C@H](NC(=O)CNC(=O)[C@H](Cc3c[nH]c4ccccc34)NC(=O)[C@H](Cc3ccc(O)cc3)NC(=O)[C@@H]3CCCN3C(=O)[C@H](CCC(N)=O)NC1=O)C(=O)N[C@@H](CCCCN)C(=O)N[C@@H](CCC(N)=O)C(=O)N[C@@H](CC(=O)O)C(=O)N[C@@H](CO)C(=O)N[C@@H](CC(=O)O)C(=O)N2 [VEGF_CKP9.63] (H-GCDVMQPYWGCKQDSDCLAGCVCHWYNSCG-OH; disulfide 2-21, 11-17, 23-29 (inferred); N-terminus and C-terminus assumed) | 146 | 28.4 | 5.72 × 10^5 | 0.02 | 2000 | 2.66 × 10^5 | 0.51 | 585 | 7.52 × 10^5 | 0.4814 | 29.7 | 2.0 | 524 | 4.56 × 10^5 | 2.46 × 10^−1 | 289 | 5.57 × 10^5 | 1.60 × 10^−1 | 382 | 3.40 × 10^5 | kd (VEGF human 165): 1.30 × 10^−1; Kd (rabbit VEGF-A): 311 nM; ka (rabbit VEGF-A): 4.24 × 10^5; kd (rabbit VEGF-A): 1.30 × 10^−1 |
